These results are taken from publication PMC6201879, “N-substituted phenylbenzamides of the niclosamide chemotype attenuate obesity related changes in high fat diet fed mice” (PLoS ONE, 2018).

Molecules are shown by their SMILES. Read-outs that look alike come from different tables or passages of the source.

Broadly, the IC50 is the concentration needed to halve the response being measured.

The test system of one test is PH5CH8 liver cells. Nature of the test: High-throughput hepatic de novo lipogenesis (DNL) assay, high content imaging of steatotic phenotype. The test is classed as cell-based, human. The settings on record: for IC50: Homo sapiens.
Test [1] in a line: Body weight changes in HFD-fed mice. The test is classed as in vivo, mouse. The procedure:
We next measured body weight changes in HFD-fed animals prior to treatment with niclosamide or phenylbenzamide derivatives and after 12 days, prior to sacrifice. During this time, all animals (including sham) lost some weight.
20-week old animals were treated IP with 500199 at 10 or 25mg/kg by IP over a time-course of 9 days. At day 0, 3, 6 and 9 animals were weighed and tissue samples were collected for standard histological scoring of hepatic steatosis and automated quantitative histomorphometric scoring.

In test [2] the test system is HEK293 cells stably transduced with the human OCT3 transporter. Nature of the test: Cellular oxygen consumption rate (OCR), MitoXpress Xtra. The test is classed as cell-based. The settings on record: HEK293 cells expressing human OCT3; for change in respiration / oxygen consumption rate (OCR): compared to DMSO control, 2 hours; for concentration dependence of OCR change: four concentrations. As to the method: Oxygen consumption rate experiments were performed by ZenBio, Inc (RTP, NC). HEK293 cells stably transduced with the human OCT3 transporter were plated in black-walled microclear plates (Greiner-BioOne) at 60,000 cells per well in growth medium. Cells were incubated overnight to allow attachment before growth medium was removed and replaced with 150μL of assay medium containing compound dilutions. Four concentrations of each compound were prepared and transferred to the empty wells. Control wells contained assay medium only or assay medium containing […] (FCCP) at 1μM. Ten μL of MitoXpress Xtra reagent was added to each test well and 100μL of pre-warmed mineral oil was overlaid in each well to create a seal. The plates were immediately read on a FLUOstar Omega (BMG) using dual read Time Resolved Fluorescence (TR-F) for 2 hours, with measurements taken every 2 minutes using 340nm and 650nm as excitation and emission wavelengths respectively. For lifetime analysis, two measurements per well were taken: 1) delay of 30μs, with a window of 30μs; and 2) delay of 70μs with a window of 30μs. Background TRF values were subtracted from all readings. A ratiometric analysis was performed to determine changes in the Lifetime fluorescence signal: Lifetime (μs)[T] = (D2-D1)/ln(W1/W2), where D is delay; W is fluorescence window value at each time point. Lifetime slopes were calculated using each Lifetime measurement over time. Data are presented as mean ± standard error (SE). The differences between the control (DMSO) and compound treated wells were analyzed using the Student’s t-test. A value of p≤0.05 was considered statistically significant. […]

Test [3] deals with carbonic anhydrase-III (CAIII). Nature of the test: Western blot of carbonic anhydrase III in liver of HFD-fed mice. The settings on record: HFD fed-DIO mice; 10mg/kg for 12 days; vs sham. (In general: Immunoblotting shows a protein as a band on a membrane.)
In test [4] the test system is phospho-S6 ribosomal protein. Nature of the test: Western blot of phospho-S6 ribosomal protein in HEK293T cells. The test is classed as cell-based, human.
The next test concerns p-AMPK Thr-172. Nature of the test: Western blot of p-AMPK Thr-172 in liver of HFD-fed mice. The settings on record: HFD fed-DIO mice; 10mg/kg for 12 days; vs sham.
Test [5] concerns fatty acid synthase (FAS). Nature of the test: Western blot of fatty acid synthase in liver of HFD-fed mice. To be noted: HFD fed-DIO mice; 10mg/kg for 12 days; vs sham.
Test [6] deals with phospho-AMPK Thr-172 (p-AMPK). Nature of the test: Western blot of phospho-AMPK Thr-172 in HEK293T cells. The test is classed as cell-based, human. As to the method: AMPK is a metabolic sensor that maintains cellular energy supply. As validation of these changes in lipid metabolism and cellular respiration we evaluated phospho-AMPK Thr-172 (p-AMPK) levels by Western blot in HEK293 cells treated with the phenylbenzamide derivatives. Compounds were screened at 1 and 10μM using the known uncouplers niclosamide and FCCP as positive controls (Fig 4A). […] We concluded that compounds that had little effect on oxygen consumption rates also had little effect on phosphorylation of AMPK.

For test [7], the system named is Phosphorylated AMPK (Thr-172). Nature of the test: High-throughput phosphorylated AMPK (Thr-172) TR-FRET assay in HepG2 cells. It counts as cell-based, human. The settings on record: HepG2 TR-FRET dose response between 0.625 and 10 μM, 4 hours; also Western blot. The procedure: Phosphorylated AMPK (Thr-172) TR-FRET Assay Kit was purchased from CisBio (Bedford MA). HepG2 [HB-8065] cells were trypsinized, harvested and counted using Countess II FL automated cell counter (Thermo Fisher Scientific). Cells were then seeded in Poly-D-Lysine coated 96-well black optical plates at a concentration of 10,000 cells per well in 50μL growth medium. After 24-hours, the media was removed and replaced with 50μL of fresh growth media containing compounds. Five concentrations of each compound were prepared, ranging from 10 to 0.625 μM and applied to columns 2–11 of the cell plate. Control wells contained DMSO (column 1-minimum response control) or 500199 (column 12-maximum response control). The final DMSO concentration was 0.45%. Cells were cultured for 4 hours before cells were lysed in 50μL of lysis buffer for 30 minutes at room temperature according to assays protocol. Following lysis, 16μL of lysate was transferred to white 384 well small volume assay plate and 4μL of antibody dyes were added per assay protocol.
Following overnight incubation, quantitation was performed on a PHERAstar (BMG), using the HTRF protocol with an excitation wavelength of 337nm and emission wavelengths of 665nm and 620nm. The ratio between emission spectra (665/620) was assessed for each well individually and averaged for triplicate samples. Data are presented as mean ratio ± SE. The differences between the control (DMSO) and the compound treated wells were analyzed using two-way ANOVA and Dunnett’s post hoc test. A value of p<0.05 was considered to be significant.
Fig 5 Validation of AMPK pathway activation by phenylbenzamide derivatives in HepG2 cells. A) Cells were seeded at 10,000 cells per well 24 hours prior to treating cells with indicated concentration of compound or DMSO (CTL) for 4 hours. 16μL of cell lysate was incubated with HTRF phospho-AMPK detection reagents and fluorescence emission read at 665nm and 620nm using a PHERAstar platereader. The mean and standard deviation of the HTRF Ratio from three replicate wells is shown. The unstimulated (DMSO) and positive controls lysates are shown in green and red respectively.
A general note: In TR-FRET formats the signal depends on donor and acceptor labels being close together.

[8] abbreviates: PH5CH8 liver cells, 10-point dose response between 1μM and 1.9nM, read-out: IC50 (uM), inhibition of steatotic phenotype in DNL assay.

With `COC(=O)c1ccc(NC(=O)c2cc(C(C)(C)C)ccc2O)c(Cl)c1` [Compound 500199, Methyl 4-[(5-tert-butyl-2-hydroxybenzene)amido]-3-chlorobenzoate], the concentration for half-maximal inhibition (IC50) in the test with PH5CH8 liver cells (setting [8]) turned out to be 0.06 µM. Further, in the test with PH5CH8 liver cells (S1 Table, SAR for N-Substituted Phenylbenzamides, read-out: IC50), the 50% inhibitory concentration (IC50) amounted to 0.066 µM. Further, in the test with PH5CH8 liver cells (S1 Table, SAR for N-Substituted Phenylbenzamides), the Active/Inactive entry is listed as “Active”. In addition, in test [1] (10mg/kg I.P daily for 12 days), the “body weight change vs sham” value was “lost significantly more weight”. For the same molecule, the “body weight vs sham” value in test [1] (10 or 25mg/kg IP over 9 days) is given as “no statistically significant difference”. For the same molecule, in test [2], the “change in respiration / oxygen consumption rate (OCR)” value was “significant changes” and the “concentration dependence of OCR change” value is recorded as “dose dependent increase in OCR”. Further, the “CAIII protein levels in liver” value in test [3] is recorded as “reduced”. In addition, the phospho-S6 ribosomal protein result in test [4] is “inversely regulated”. Besides, the “phosphorylation of AMPK at Thr-172 in liver” value with p-AMPK Thr-172 is listed as “stimulated phosphorylation of AMPK at Thr-172”. Besides, the “FAS protein levels in liver” value in [5] is “reduced”. Also, the “phosphorylation of AMPK (p-AMPK Thr-172) by Western blot” value in [6] (1 and 10μM, negatives re-screened at 5 and 20 μM, 3 hours) is recorded as “stimulated phosphorylation of AMPK”. Besides, the “concentration at which phosphorylation of AMPK peaks” value in test [6] (Western blot) was determined as 5 µM.
In the case of `N#Cc1ccc(NC(=O)c2cc(Cl)ccc2O)c(Cl)c1` [Compound 500833, 5-Chloro-N-(2-chloro-4-cyanophenyl)-2-hydroxybenzamide], the IC50 in the test with PH5CH8 liver cells (setting [8]) is 0.04 µM; in the test with PH5CH8 liver cells (S1 Table. SAR for N-Substituted Phenylbenzamides, read-out: IC50), 0.043 µM. For the same molecule, in the test on PH5CH8 liver cells (S1 Table. SAR for N-Substituted Phenylbenzamides), the Active/Inactive result is listed as “Active”. Besides, the “phosphorylation of AMPK (Figs 5 and 4D)” value in [7] is recorded as “stimulated phosphorylation of AMPK”. Also, in [2], the “change in respiration / oxygen consumption rate (OCR)” value is listed as “significant changes”. Moreover, the “concentration dependence of OCR change” value in test [2] is “only significantly elevated at 1μM”.
